The results in this text go back to ChEMBL document CHEMBL1145063, “Structure-based design of a macrocyclic inhibitor for peptide deformylase” (J Med Chem, 2003).

Assay [1] concerns the target T1, Peptide deformylase (Escherichia coli, UniProt Q9JN24).
T1 sequence (Q9JN24 whole entry): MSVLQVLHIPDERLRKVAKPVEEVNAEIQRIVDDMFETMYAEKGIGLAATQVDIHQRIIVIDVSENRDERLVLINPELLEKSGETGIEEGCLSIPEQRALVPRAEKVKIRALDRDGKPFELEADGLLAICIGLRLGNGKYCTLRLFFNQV
The assay is described as follows: Inhibitory concentration against peptide deformylase was determined.

The target of assay [2] is T1, Peptide deformylase. The assay is described as follows: Binding affinity against Co(II)-substituted Escherichia coli peptide deformylase was determined.
For another assay, the system named is Escherichia coli. Briefly: In vitro minimal inhibitory concentration against Escherichia coli was determined. Format: functional.
The subject of a further assay is Bacillus subtilis. The assay is described as follows: In vitro minimal inhibitory concentration against Bacillus subtilis was determined. Format: functional.

pIC50, pKi: −log10 of the molar value. In brackets after ≈: the same amount, converted by molar mass.

What is called pIC50 is the IC50 on a negative log10 scale, so that one unit is a factor of ten. `CCCCC(CN(O)C=O)C(=O)N[C@H](C(=O)N(C)C)C(C)(C)C` (some centres undefined) gave a negative logarithm of the IC50 (pIC50) on Peptide deformylase [1] of 8.15.
By pKi is commonly meant the Ki on a negative log10 scale, so that one unit is a factor of ten. As usually defined, the MIC is the least concentration at which growth counts as inhibited. For the molecule `CC(C)(C)[C@@H]1NC(=O)C(CN(O)C=O)CCCCCCCCCNC1=O` (some centres undefined), the negative logarithm of the Ki (pKi) at Peptide deformylase [2] is 9.17. Besides, the MIC in the assay with Escherichia coli amounted to 32 µM (≈ 11.8 µg/mL); with Bacillus subtilis it was 4 µM (≈ 1.48 µg/mL).
